Test [1] has as its system hair follicles of skin explants. Briefly: Skin explants from mice during telogen (Example 16). Type of test: cell-based. The settings on record: 72 hours. An excerpt:
In the untreated control explants, the follicles were few and small.

Test [2] shares this test system. Briefly: Cultured skin explants from 5 day old mice, hair follicle diameter and elongation (Example 11). The format is cell-based, C3H/HeS1c mice. The settings on record: 10 μM; 72 hours. The protocol:
Cultured skin explants from 5 day old mice cultured for 72 hours were treated with proteasome inhibitors, non-proteasomal proteases and non-proteasomal inhibitors of NF-κB and effects on hair follicle diameter and follicle elongation were determined according to the method of Kamiya, T., et al., J Derm Sci (1998) 17:54-60. Skin slices from the dorsal skin of 5 day old C3H/HeS1c mice were cultured in 1 ml of αMEM and 0.1% BSA for 72 hours and then assessed for changes in hair follicle diameter and hair elongation under an inverted microscope, using image analysis. […] Thus, the chymotrypsin-like activity of the proteasome is the catalytic component of the proteasome that is responsible for the effects of these compounds on hair follicle differentiation and hair growth. Only proteasome inhibitors had discernable effects on these parameters.

Test [3] has as its system hair follicles. Briefly: Induction of anagen in hair follicles in vivo (Example 12). The settings on record: dose not given. On the set-up: species or system C57 black mice. As for the experimental part: Inhibitors of the proteasomal chymotrypsin-like activity were treated for their capacity to induce transit of hair follicles into anagen in vivo in C57 black mice eight weeks of age.

Test [4] concerns mouse BMP2 promoter. Briefly: High throughput screen (ABA assay): BMP2 promoter-luciferase reporter in 2T3-BMP-2-LUC osteoblast cells. The format is cell-based. An excerpt:
1995, the entire contents of which are incorporated herein by reference. This assay is also described as a portion of a study of immortalized murine osteoblasts (derived from a mouse expressing a transgene composed of a BMP2 promoter driving expression of T-antigen) in Ghosh-Choudhery, N., et al., Endocrinology (1996) 137:331-39. In this study, the immortalized cells were stably transfected with a plasmid containing a luciferase reporter gene driven by a mouse BMP2 promoter (−2736/114 bp), and responded in a dose-dependent manner to recombinant human BMP2.
Briefly, the assay utilizes cells transformed permanently or transiently with constructs in which the promoter of a bone morphogenetic protein, specifically BMP2 or BMP4, is coupled to a reporter gene, typically luciferase. These transformed cells are then evaluated for the production of the reporter gene product; compounds that activate the BMP promoter will drive production of the reporter protein, which can be readily assayed. Many thousands of compounds have been subjected to this rapid screening technique, and only a very small percentage are able to elicit a level of expression of reporter gene 5-fold greater than that produced by vehicle. […] The active compounds (“BMP promoter-active compounds” or “active compounds”) are useful in promoting bone or cartilage growth, and thus in the treatment of vertebrates in need of bone or cartilage growth.
Thousands of compounds have been tested in the assay system set forth in U.S. Ser. No. 08/458,434, filed 2 Jun. 1995, and incorporated herein by reference. […] In this screen, the standard positive control was the compound 59-0008 (also denoted “OS8”), which is of the formula: [drawing 22]
In more detail, the 2T3-BMP-2-LUC cells, a stably transformed osteoblast cell line described in Ghosh-Choudhury et al. Endocrinology (1996) 137:331-39, referenced above, was employed. The cells were cultured using α-MEM, 10% FCS with 1% penicillin/streptomycin and 1% glutamine (“plating medium”), and were split 1:5 once per week. For the assay, the cells were resuspended in a plating medium containing 4% FCS, plated in microtiter plates at a concentration of 5×10^3 cells (in 50 μl)/well, and incubated for 24 hours at 37° C. in 5% CO2. To initiate the assay, 50 μl of the test compound or the control in DMSO was added at 2× concentration to each well, so that the final volume was 100 μl. The final serum concentration was 2% FCS, and the final DMSO concentration was 1%. Compound 59-0008 (10 μM) was used as a positive control.
The treated cells were incubated for 24 hours at 37° C. and 5% CO2. The medium was then removed, and the cells were rinsed three times with PBS. After removal of excess PBS, 25 μl of 1× cell culture lysing reagent (Promega #E153A) was added to each well and incubated for at least ten minutes. Optionally, the plates/samples could be frozen at this point. To each well was added 50 μl of luciferase substrate (Promega #E152A; 10 ml Promega luciferase assay buffer per 7 mg Promega luciferase assay substrate). Luminescence was measured on an automated 96-well luminometer, and was expressed as either picograms of luciferase activity per well or as picograms of luciferase activity per microgram of protein.
Accordingly, other tested compounds can be evaluated at various concentrations, and the results compared to the results obtained for 59-0008 at 10 μM (which value would be normalized to 100). Alternatively, the reactivity of a compound to be tested can be compared directly to a negative control containing no compound.
(In general: Reporter assays use an easily measured gene product as a stand-in for the process of interest.)

In test [5] the test system is proteasomal activity. The settings on record: cited from earlier work.
In test [6] the test system is neonatal mouse calvaria. Briefly: Neonatal mouse calvaria assay (in vitro / ex vivo) for bone formation. The format is cell-based, ICR Swiss white mouse. As for the experimental part: An assay for bone resorption or bone formation is similar to that described by Gowen M. & Mundy G., J Immunol (1986) 136:2478-82. Briefly, four days after birth, the front and parietal bones of ICR Swiss white mouse pups are removed by microdissection and split along the sagittal suture. In an assay for resorption, the bones are incubated in BGJb medium (Irvine Scientific, Santa Ana, Calif.) plus 0.02% (or lower concentration) β-methylcyclodextrin, wherein the medium also contains test or control substances. The medium used when the assay is conducted to assess bone formation is Fitton and Jackson Modified BGJ Medium (Sigma) supplemented with 6 μg/ml insulin, 6 μg/ml transferrin, 6 ng/ml selenous acid, calcium and phosphate concentrations of 1.25 and 3.0 mM, respectively, and ascorbic acid to a concentration of 100 μg/ml is added every two days. The incubation is conducted at 37° C. in a humidified atmosphere of 5% CO2 and 95% air for 96 hours.
Following this, the bones are removed from the incubation media and fixed in 10% buffered formalin for 24-48 hours, decalcified in 14% EDTA for 1 week, processed through graded alcohols; and embedded in paraffin wax. Three […] sections of the calvaria are prepared. Representative sections are selected for histomorphometric assessment of bone formation or bone resorption. Bone changes are measured on sections cut 200 μm apart. Osteoblasts and osteoclasts are identified by their distinctive morphology.
Selected compounds and appropriate controls were assayed in vitro (ex vivo) for bone formation activity (described above in “Techniques for Neonatal Mouse Calvaria Assay (in vitro)). Histomorphometrical assessments of ex vivo calvaria were carried out using an OsteoMetrics bone morphometry measurement program, according to the manufacturer's instructions. Measurements were determined using either a 10- or 20-fold objective with a standard point counting eyepiece graticule.
New bone formation was determined (using a 10× objective) by measuring the new bone area formed in one field in 3 representative sections of each bone (4 bones per group). Each measurement was carried out ½ field distance from the end of the suture. Both total bone and old bone area were measured. Data were expressed as new bone area in μm^2.
Osteoblast numbers are determined by point counting. The number of osteoblast cells lining the bone surface on both sides of the bone are counted in one field using a 20× objective. Data are expressed as osteoblast numbers/mm of bone surface. […]

Molecules are shown by their SMILES.

`Nc1cc(N2CCCCC2)nc(N)[n+]1[O-]` [Minoxidil]: the “concentrations causing these changes, relative to the proteasome inhibitors” value in test [1] is given as 10,000 fold.

Take `S=C(S)N1CCCC1` [PDTC, 1-pyrrolidinecarbodithioic acid]: the “effect on follicle growth” value in test [2] is recorded as “did not significantly affect follicle growth”. Further, in test [3], the “effect on hair follicles” value is given as “had no effect on hair follicles”. Moreover, the “response in the high throughput luciferase screen” value in test [4] is on record as “do not give promising responses”. The “effects on proteasomal activity” value in test [5] is on record as “no effects on proteasomal activity”. Moreover, the “new bone formation in the in vitro calvarial assay” value in test [6] is listed as “appeared negative”.

Source of the values: patent publication US6838436B1, “Inhibitors of proteasomal activity for stimulating bone growth” (Osteoscreen Inc., priority 1998, dated 2005).
